Assay results: patent publication US20250171495A1, “MUTLI-TARGETED SERINE PROTEASE INHIBITORS FOR TREATMENT OF CANCER AND VIRAL INFECTION” (Washington University, priority 2023, published 2025)

What was measured:
Type in all cases: biochemical
[1] = molecular target: T1, HGFA (Homo sapiens, UniProt Q04756); experiment: HyCoSuL P4-P2 substrate specificity screening, HGFA; conditions: for P2 Position Substrate Activity for HGFA (percent substrate cleavage/proteolysis): residue fixed at P2 position; for P3 Position Various Amino Acids Substrate Activity, HGFA (percent substrate cleavage/proteolysis): residue fixed at P3 position of substrate library; for P4 Position Various Amino Acids Substrate Activity, HGFA (percent substrate proteolysis/cleavage): residue fixed at P4 position of substrate library; for P3 Position Substrate Activity for HGFA (percent substrate cleavage/proteolysis): residue fixed at P3 position
T1 sequence (Q04756 373-655): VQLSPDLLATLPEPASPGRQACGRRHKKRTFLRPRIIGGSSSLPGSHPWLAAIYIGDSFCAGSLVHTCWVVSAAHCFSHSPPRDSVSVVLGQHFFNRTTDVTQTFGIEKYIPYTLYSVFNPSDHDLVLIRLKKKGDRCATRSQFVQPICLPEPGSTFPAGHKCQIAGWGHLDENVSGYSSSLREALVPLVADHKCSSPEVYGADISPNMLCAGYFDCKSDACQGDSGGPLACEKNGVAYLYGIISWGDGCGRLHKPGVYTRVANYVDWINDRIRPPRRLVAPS

[2] = molecular target: T2, hepsin (Homo sapiens, UniProt P05981); experiment: HyCoSuL P4-P2 substrate specificity screening, hepsin; conditions: for P2 Position Substrate Activity for hepsin (percent substrate cleavage/proteolysis): residue fixed at P2 position; for P3 Position Various Amino Acids Substrate Activity, hepsin (percent substrate cleavage/proteolysis): residue fixed at P3 position of substrate library; for P4 Position Various Amino Acids Substrate Activity, hepsin (percent substrate proteolysis/cleavage): residue fixed at P4 position of substrate library; for P3 Position Substrate Activity for hepsin (percent substrate cleavage/proteolysis): residue fixed at P3 position
T2 construct: purchased R&D Systems 4776-SE-010

[3] = molecular target: TMPRSS2 (Homo sapiens, UniProt O15393); experiment: PS-SCL / HyCoSuL substrate specificity screening, TMPRSS2; conditions: for P2 Position Substrate Activity for TMPRSS2 (percent substrate cleavage/proteolysis): residue fixed at P2 position of substrate library; for P3 Position Various Amino Acids Substrate Activity, TMPRSS2 (percent substrate cleavage/proteolysis) / P3 Position Substrate Activity for TMPRSS2 (percent substrate cleavage/proteolysis): residue fixed at P3 position of substrate library
[4] = molecular target: T3, matriptase (Homo sapiens, UniProt Q9Y5Y6); experiment: HyCoSuL P4-P2 substrate specificity screening, matriptase; conditions: for P2 Position Substrate Activity for matriptase (percent substrate cleavage/proteolysis): residue fixed at P2 position; for P3 Position Various Amino Acids Substrate Activity, matriptase (percent substrate cleavage/proteolysis): residue fixed at P3 position of substrate library; for P4 Position Various Amino Acids Substrate Activity, matriptase (percent substrate proteolysis/cleavage): residue fixed at P4 position of substrate library; for P3 Position Substrate Activity for matriptase (percent substrate cleavage/proteolysis): residue fixed at P3 position
T3 sequence (Q9Y5Y6 1-855): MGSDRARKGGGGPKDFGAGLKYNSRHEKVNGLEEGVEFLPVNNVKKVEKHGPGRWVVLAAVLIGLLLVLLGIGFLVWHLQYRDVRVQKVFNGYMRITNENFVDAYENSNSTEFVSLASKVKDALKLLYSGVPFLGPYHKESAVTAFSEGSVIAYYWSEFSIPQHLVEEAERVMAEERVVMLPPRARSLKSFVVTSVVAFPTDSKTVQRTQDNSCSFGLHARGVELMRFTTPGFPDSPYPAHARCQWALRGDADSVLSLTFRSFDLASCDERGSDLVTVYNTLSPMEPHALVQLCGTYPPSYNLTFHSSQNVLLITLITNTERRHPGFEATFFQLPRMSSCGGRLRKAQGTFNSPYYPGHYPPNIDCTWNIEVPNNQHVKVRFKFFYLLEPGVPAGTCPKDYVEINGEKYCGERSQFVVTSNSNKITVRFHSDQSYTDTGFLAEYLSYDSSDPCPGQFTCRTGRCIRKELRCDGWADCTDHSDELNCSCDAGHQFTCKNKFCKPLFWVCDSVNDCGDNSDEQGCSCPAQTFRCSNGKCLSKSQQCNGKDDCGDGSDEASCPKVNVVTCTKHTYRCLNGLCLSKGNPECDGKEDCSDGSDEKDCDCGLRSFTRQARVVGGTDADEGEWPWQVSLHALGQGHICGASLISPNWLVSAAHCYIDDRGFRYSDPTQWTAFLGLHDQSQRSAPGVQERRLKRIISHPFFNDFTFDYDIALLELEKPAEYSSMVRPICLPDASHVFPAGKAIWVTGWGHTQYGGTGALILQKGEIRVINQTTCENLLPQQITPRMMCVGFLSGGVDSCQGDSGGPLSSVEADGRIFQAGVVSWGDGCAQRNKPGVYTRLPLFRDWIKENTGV

[5] = P1-Arg HyCoSuL, 100 μM, best recognized amino acid set to 100%
[6] = best recognized amino acid set to 100%
[7] = residue fixed at P4 position of substrate library
[8] = residue fixed at P4 position, P1-Arg HyCoSuL, 100 μM, best recognized amino acid set to 100%

TMPRSS2, sequence (O15393 whole entry): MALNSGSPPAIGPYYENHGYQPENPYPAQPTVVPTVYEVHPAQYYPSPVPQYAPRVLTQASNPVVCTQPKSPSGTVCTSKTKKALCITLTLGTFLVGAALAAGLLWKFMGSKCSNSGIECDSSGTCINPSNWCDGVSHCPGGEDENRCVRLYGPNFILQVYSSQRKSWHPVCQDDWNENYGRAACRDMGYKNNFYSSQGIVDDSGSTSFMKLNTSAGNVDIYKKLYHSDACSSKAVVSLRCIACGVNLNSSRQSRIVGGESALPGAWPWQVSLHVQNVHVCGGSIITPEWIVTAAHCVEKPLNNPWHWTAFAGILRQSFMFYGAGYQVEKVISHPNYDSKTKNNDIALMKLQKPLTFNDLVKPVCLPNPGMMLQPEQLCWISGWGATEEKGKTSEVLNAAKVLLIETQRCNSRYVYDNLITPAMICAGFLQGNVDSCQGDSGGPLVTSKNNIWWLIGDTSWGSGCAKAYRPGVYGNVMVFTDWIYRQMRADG
T2 sequence (P05981 163-417 limits assumed): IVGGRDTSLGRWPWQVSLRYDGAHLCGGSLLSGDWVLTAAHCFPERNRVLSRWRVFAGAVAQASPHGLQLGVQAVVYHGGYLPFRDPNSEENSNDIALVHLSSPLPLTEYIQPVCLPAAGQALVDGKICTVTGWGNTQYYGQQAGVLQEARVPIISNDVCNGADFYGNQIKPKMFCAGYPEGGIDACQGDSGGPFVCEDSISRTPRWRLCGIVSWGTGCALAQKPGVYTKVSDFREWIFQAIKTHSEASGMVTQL
T2 sequence (P05981 1-162 partner limits assumed): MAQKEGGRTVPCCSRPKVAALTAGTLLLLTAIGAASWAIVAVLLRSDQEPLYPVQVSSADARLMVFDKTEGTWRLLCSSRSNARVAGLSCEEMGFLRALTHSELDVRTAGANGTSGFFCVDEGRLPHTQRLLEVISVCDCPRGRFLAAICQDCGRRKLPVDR

Compound	P2 Position Substrate Activity for HGFA (percent substrate cleavage/proteolysis) [1, 5] [%]	P3 Position Various Amino Acids Substrate Activity, HGFA (percent substrate cleavage/proteolysis) [1] [%]	P4 Position Various Amino Acids Substrate Activity, HGFA (percent substrate proteolysis/cleavage) [1] [%]	P2 Position Substrate Activity for hepsin (percent substrate cleavage/proteolysis) [2, 5] [%]	P3 Position Various Amino Acids Substrate Activity, hepsin (percent substrate cleavage/proteolysis) [2] [%]	P4 Position Various Amino Acids Substrate Activity, hepsin (percent substrate proteolysis/cleavage) [2] [%]	P2 Position Substrate Activity for TMPRSS2 (percent substrate cleavage/proteolysis) [3, 6] [%]	P3 Position Various Amino Acids Substrate Activity, TMPRSS2 (percent substrate cleavage/proteolysis) [3] [%]	P4 Position Various Amino Acids Substrate Activity, TMPRSS2 (percent substrate proteolysis/cleavage) [3, 7] [%]	P2 Position Substrate Activity for matriptase (percent substrate cleavage/proteolysis) [4, 5] [%]	P3 Position Various Amino Acids Substrate Activity, matriptase (percent substrate cleavage/proteolysis) [4] [%]	P4 Position Various Amino Acids Substrate Activity, matriptase (percent substrate proteolysis/cleavage) [4] [%]	P3 Position Substrate Activity for HGFA (percent substrate cleavage/proteolysis) [1, 5] [%]	P4 Position Substrate Activity for HGFA (percent substrate cleavage/proteolysis) [1, 8] [%]	P3 Position Substrate Activity for hepsin (percent substrate cleavage/proteolysis) [2, 5] [%]	P4 Position Substrate Activity for hepsin (percent substrate cleavage/proteolysis) [2, 8] [%]	P3 Position Substrate Activity for TMPRSS2 (percent substrate cleavage/proteolysis) [3, 6] [%]	P4 Position Substrate Activity for TMPRSS2 (percent substrate cleavage/proteolysis) ([3]; residue fixed at P4 position of substrate library, best recognized amino acid set to 100%) [%]	P3 Position Substrate Activity for matriptase (percent substrate cleavage/proteolysis) [4, 5] [%]	P4 Position Substrate Activity for matriptase (percent substrate cleavage/proteolysis) [4, 8] [%]
L-Thr	8.87	14.51	7.67	70.75	35.34	29.29	22.02	39.80	21.84	15	31	14								
D-Arg	0.00			0.00			0.00			0	8	18	29.10	23.20	66.08	44.37	0.00	24.43	7.82	17.66
L-Asn	4.79	6.12	8.20	63.72	24.47	25.25	9.49	19.47	21.89	12	14	10								
L-Tyr	3.17	11.59	16.47	22.79	7.75	22.39	31.93	16.18	31.87	12	17	14								
L-Nle	45.52	19.15	11.76	62.04	24.09	40.93	11.80	38.11	56.06	13	34	34								
L-Cit	6.32	13.41	6.44	32.27	29.53	36.68	0.00	32.80	33.20	1	21	18								
D-Gln	0.00		8.03	0.00		20.13	0.00		20.76	0	7	7	13.84		97.80		10.18		7.43	
L-Ala	2.37	8.97	6.68	17.85	28.07	41.30	25.14	31.84	26.30	28	34	31								
CC(C)CC[C@H](N)C(=O)O [L-hLeu]	72.69	23.44	14.86	14.44	13.84	41.61	8.15	35.41	53.91	5	25	27								
